Laboratory results as given in patent US10857201B2, “NNIF and nNIF-related peptides and related methods” (UNIVERSITY OF UTAH RESEARCH FOUNDATION, priority 2016, dated 2020).

Assays:
[1] = test system: neutrophil extracellular trap (NET) formation; assay: In vitro NET formation by stimulated human PMNs (live cell imaging, NET-associated histone H3 release); format: cell-based
Experimental: Qualitative assessment of NET formation was performed as previously reported (see Yost C C, et al., Blood. 2009; 113 (25):6419-27 and McInturff A M, et al., Blood. 2012; 120 (15):3118-25). Briefly, primary PMNs isolated from preterm infants, healthy term infants, and healthy adults (2×10^6 cells/mL) were incubated with control buffer or stimulated with indicated agonists or bacteria for 1 hour at 37° C. in 5% CO2/95% air on glass coverslips coated with poly-L-lysine. For selected experiments, primary PMNs were pre-incubated with autologous plasma, cord blood plasma, nNIF (0.2-70 nM), CRISPP (0.2-70 nM), nNIF-SCR (1 nM), or CRISPP-SCR (1 nM) for one hour prior to stimulation. After pre-incubation and/or stimulation, PMNs were gently washed with PBS and incubated with a mixture of cell permeable (SYTO® Green, MOLECULAR PROBES®) and impermeable (SYTOX® Orange, MOLECULAR PROBES®) DNA fluorescent dyes. Confocal microscopy was accomplished using a FV1000 IX81 confocal microscope and FLUOVIEW™ software (OLYMPUS™). Both 20× and 60× objectives were used. Z-series images were obtained at a step size of 1 μm over a range of 20 μm for each field. FLUOVIEW™ and ADOBE™ PHOTOSHOP™ CS2 software was used for image processing.
Using BSL 2 safety protocols, primary PMNs isolated from healthy adults (2×10^6 cells/mL) were incubated with mock infection buffer or live dengue virus (M010.05) as for live cell imaging. After a 1-hour incubation, the infected PMNs were fixed with 2% p-FA for 10 minutes prior to incubation with fluorescently-labeled, cell-permeable and cell-impermeable DNA dyes, and imaged as for live cell imaging using confocal microscopy.
NET-associated histone H3 content was determined as previously described (see McInturff A M, et al., Blood. 2012; 120 (15):3118-25). After live cell imaging of control and stimulated primary PMNs (2×10^6/mL; various agonists), the cells were incubated with PBS containing DNase (40 U/mL) for 15 minutes at room temperature to break down and release NETs formed in response to stimulation. The supernatant was gently removed and centrifuged at 420×g for 5 minutes. The cell-free supernatant was then mixed 3:1 with 4× Laemmli buffer prior to western blotting. A polyclonal primary antibody against human histone H3 protein (CELL SIGNALING®) and infrared-conjugated secondary antibodies (LI-COR®) were used. Imaging and densitometry were performed on the ODYSSEY® infrared imaging system)(LI-COR®). This assay was previously validated as a surrogate for NET formation under in vitro conditions (see McInturff A M, et al., Blood. 2012; 120 (15):3118-25) as employed in the present studies.
Without being bound by any specific theory, it was hypothesized that placentally expressed HTRA1, a serine protease, regulates the formation of NET-inhibitory peptides through cleavage of AAT. To test this hypothesis, term and preterm placenta were assessed for HTRA1 expression via western blotting. HTRA1 and AAT plasma expression from term and preterm infants and adults were determined by ELISA. Bioactive (0.5 μg) or placental eluted HTRA1 was incubated with AAT (8 μM) for 18 hours at 37° C. Carboxy-terminus fragments of AAT were detected using western blotting and mass spectrometry. The reaction products were incubated for 1 hour with PMNs isolated from healthy adults prior to LPS stimulation (100 ng/mL) and assessed for NET formation using live cell imaging. Reactive oxygen species were assessed using flow cytometry, chemotaxis using a modified Boyden chamber assay, and bacterial killing using E. coli.

[2] = test system: NET formation in E. coli peritonitis; assay: Mouse model of E. coli peritonitis (in vivo NET formation); details: C57BL/6 mice, 10 mg/kg i.p. 1 hour before E. coli i.p., 3 hours
Description: FIG. 8A depicts results of peritoneal fluid NET formation (red fluorescence, yellow arrow) assessed by live cell imaging (60× magnification, scale bar=50 μm) and histone H3 release (red dashed line=baseline arbitrarily set at 1). Three mice per group. One way ANOVA with Tukey's post hoc testing, ***P<0.001 for CRISPP and nNIF versus CRISPP-SCR.
FIG. 8B depicts results of NET formation on the surfaces of peritoneal membranes (red fluorescence, yellow arrows) that was quantified by counting the number of NETs that crossed standardized grid lines in […] (60× magnification; scale bar=50 μm) using IMAGEJ™ software. A second experiment yielded a similar pattern. FIGS. 8A and 8B depict C57BL/6 mice that were not pretreated or pretreated with nNIF, CRISPP, or CRISPP-SCR (10 mg/kg i.p.; 1 hour) and were inoculated with E. coli (4.5×10^7 bacteria i.p.). After 3 hours, the animals were sacrificed, and peritoneal fluid (FIG. 8A) and membranes (FIG. 8B) were collected for analysis.
FIG. 8C depicts C57BL/6 mice that were not pretreated (left two bars) or that were pretreated with CRISPP, nNIF, or CRISPP-SCR, and that were inoculated with E. coli i.p. as in FIGS. 8A and 8B. Neutrophil numbers in peritoneal fluid were counted after 3 hours (3-5 mice/group). […]
FIG. 8E depicts peritoneal fluid NET formation, imaged and measured as in FIG. 8A (10 mice/group). *P<0.05 for CRISPP/E. coli and nNIF/E. coli compared to CRISPP-SCR/E. coli and E. coli.
FIG. 8F depicts NET formation on peritoneal membrane surfaces, imaged and quantitated as in FIG. 8B (3 mice in each group). *P<0.05 for E. coli versus control (red dashed line); **P<0.01 for CRISPP-SCR/E. coli versus control; †P<0.05 for CRISPP/E. coli and nNIF/E. coli versus CRISPP-SCR/E. coli. One way ANOVA with Tukey's post-hoc testing applied in FIGS. 8E and 8F. In FIGS. 8E and 8F, Swiss-Webster mice that were not pretreated or that were pretreated with nNIF, CRISPP, or CRISPP-SCR were inoculated with E. coli i.p. as in FIGS. 8A and 8B. After 3 hours, peritoneal fluid and membranes were collected. FIGS. 8A-8F indicate that nNIF and CRISPP inhibit in vivo NET formation.
(§1) C57/BL6 or Swiss-Webster mice were pretreated in blinded fashion with CRISPP (10 mg/kg), nNIF (10 mg/kg), or CRISPP-SCR (10 mg/kg) by i.p. injection 1 hour prior to infection (E. coli, 4.5×10^7 cfu/mouse, i.p.) or inoculation (LPS, 25 mg/kg, i.p.) (SIGMA-ALDRICH®). Control mice were injected with saline alone. The mice were sacrificed in a CO2 chamber 3 hours post-infection/inoculation, and the peritoneal fluid and membrane samples were harvested. Briefly, the abdomen was disinfected and opened in the midline without injuring the muscle. The peritoneal cavity was lavaged with sterile saline solution (1 mL) and analyzed for in vivo NET formation, bacteriology, and leukocyte accumulation. NETs in the peritoneal fluid were qualitatively and quantitatively analyzed using live cell imaging with confocal microscopy and NET-associated histone H3 release assays. NETs on the serosal surface of the peritoneal membrane were assessed quantitatively using live cell imaging, followed by standardized grid analysis of five randomly selected high-power visual fields per tissue sample (IMAGEJ™ software, NIH). Peritoneal bacterial colony forming unit (cfu) counts were quantified by permeabilizing all recovered leukocytes with 0.1% Triton X-100 for 10 minutes and performing serial dilutions and bacterial cultures on 5% sheep blood agar plates (HARDY DIAGNOSTICS™). After a 24-hour incubation, bacterial counts were determined. Total leukocyte counts in the peritoneal lavage were determined in Neubauer chambers using an optical microscope after dilution in Turk's solution (2% acetic acid). Differential leukocyte analysis was performed using a 60× oil immersion objective to assess morphology of cyto-centrifuged cells stained with May-Gruenwald-Giemsa dye. All mice were included in the final analysis.

[3] = test system: LPS-induced peritoneal NET formation; assay: Mouse model of LPS-induced peritonitis (in vivo NET formation); details: C57BL/6 mice, i.p. LPS
Experimental: as §1

[4] = test system: C57BL/6 mice challenged with LPS; assay: Mouse model of systemic inflammation induced by LPS (endotoxemia), survival; format: in vivo; details: i.p. LPS, first experiment, n=6 per group
Experimental: Animals with no treatments or given LPS alone were studied in parallel (n≥10 mice for each condition). **P<0.01, log-rank (Mantel-Cox) statistical tool used. The survival difference between nNIF-LPS and CRISPP-LPS compared to CRISPP-SCR-LPS trended toward significance (§ P=0.051).
Control mice were i.p. injected with saline alone. Fluid resuscitation and antibiotic treatment were not used in these experiments. Survival was assessed over 50 or 72 hour intervals. All mice were included in the final survival analysis.

V_MDITPMQVGPLKMKPKVIFNPFKLFENF [CRISPP-SCR, scrambled control peptide of CRISPP, reference compound]
PMA-stimulated NET deployment ([1]; PMA 20 nM, peptides 1 nM, 1 hour preincubation): not
NET formation triggered by LPS ([1]; adult PMNs preincubated with agent, LPS 100 ng/mL, 1 hour): does not
NET formation by peritoneal fluid PMNs [2]: not
deployment of NETs on the peritoneal surface [2]: not
LPS-induced peritoneal NET formation [3]: not
animals alive at 50 hours [4]: 30%
